One assay deals with Gerbillinae. Kind of assay: CNS penetration was assessed by compounds ability in gerbils to block the foot-tapping induced by central infusion of the NK1-selective agonist GR-73632 when administered intravenously. The class given is functional. The following applies: iv, read-out: ID50 (the source's name).
Assay [1] deals with T1, Substance-P receptor (Homo sapiens, UniProt P25103). Kind of assay: Displacement of [125I]-labeled substance P from human Tachykinin receptor 1 expressed in CHO cells. The class given is cell-based. (Loss of bound radioactivity is the signal in a displacement assay; it reports binding, not function.)
In assay [2] the target is T1, Substance-P receptor. Kind of assay: Displacement of [125I]-substance P from human Tachykinin receptor 1.
Assay [3] addresses T1, Substance-P receptor. Kind of assay: Percent displacement of [125I]-labeled substance P from the cloned human Tachykinin receptor 1 expressed in CHO cells at 1 uM. The class given is cell-based.
The target of assay [4] is T1, Substance-P receptor. Kind of assay: Percent displacement of [125I]-labeled substance P from the cloned human Tachykinin receptor 1 expressed in CHO cells at a concentration of 1 uM of the compound. The class given is cell-based.

Molecules are shown by their SMILES.

The record followed here is ChEMBL document CHEMBL1135315, “Spirocyclic NK(1) antagonists I: [4.5] and [5.5]-spiroketals” (Bioorg Med Chem Lett, 2002).

What is called IC50 is the concentration that inhibits the measured activity by half.

T1 sequence (P25103 whole entry): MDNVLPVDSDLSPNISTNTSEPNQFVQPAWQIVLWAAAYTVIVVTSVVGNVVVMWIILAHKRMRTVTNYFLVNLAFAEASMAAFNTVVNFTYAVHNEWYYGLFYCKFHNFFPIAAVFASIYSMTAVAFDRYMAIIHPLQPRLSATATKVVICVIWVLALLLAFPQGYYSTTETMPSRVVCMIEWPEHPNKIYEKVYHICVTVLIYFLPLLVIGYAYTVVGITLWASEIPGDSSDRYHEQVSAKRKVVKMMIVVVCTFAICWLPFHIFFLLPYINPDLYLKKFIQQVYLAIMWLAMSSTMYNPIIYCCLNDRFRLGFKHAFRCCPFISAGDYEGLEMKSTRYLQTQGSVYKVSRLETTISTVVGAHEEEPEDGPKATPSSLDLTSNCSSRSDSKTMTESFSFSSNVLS

As to `CN(C)Cc1nn[nH]c1CN1CCOC2(CCC(c3ccccc3OC(F)(F)F)CO2)C1c1ccc(F)cc1` (stereo not drawn), the ED50 in the assay with Gerbillinae was 0.6 mg/kg. The same compound came in with a half-maximal inhibitory concentration (IC50) at Substance-P receptor [1] of 1.4 nM.

At Substance-P receptor [1], `c1ccc(C2CCC3(OCCNC3c3ccccc3)OC2)cc1` (stereo not drawn) gave a half-inhibitory concentration (IC50) of 170 nM.

On Substance-P receptor [1], `COc1ccccc1[C@H]1COCC2(C1)OCCN(Cc1n[nH]c(O)n1)[C@H]2c1ccc(F)cc1` (stereo partly drawn) showed an IC50 of 0.56 nM.

`COc1ccc(OC)c([C@H]2COCC3(C2)OCCN[C@H]3c2ccc(F)cc2)c1` (stereo partly drawn) returned a 50% inhibitory concentration (IC50) on Substance-P receptor [1] of 16 nM.

Take `COc1ccc(F)cc1[C@H]1COCC2(C1)OCCN[C@H]2c1ccc(F)cc1` (stereo partly drawn): the half-inhibitory concentration (IC50) at Substance-P receptor [1] was found to be 10 nM.

In the case of `O=c1[nH]nc(CN2CCOC3(CCC(c4ccccc4)CO3)C2c2ccccc2)[nH]1` (stereo not drawn), at Substance-P receptor [1], the half-maximal inhibitory concentration (IC50) is 19 nM.

At Substance-P receptor [1], `Fc1ccc([C@@H]2NCCOC23COC[C@H](c2ccccc2C(F)(F)F)C3)cc1` (stereo partly drawn) displayed an IC50 of 24 nM.

At Substance-P receptor [1], `Fc1ccc([C@@H]2NCCOC23COC[C@H](c2ccccc2)C3)cc1` (stereo partly drawn) displayed an IC50 of 99 nM.

With `Fc1ccc([C@@H]2NCCO[C@]23CC[C@H](c2ccccc2C(F)(F)F)CO3)cc1`, the IC50 at Substance-P receptor [2] came to 400 nM.

The compound `COc1ccccc1[C@H]1COCC2(C1)OCCN[C@H]2c1ccc(F)cc1` (stereo partly drawn) had a half-maximal inhibitory concentration (IC50) at Substance-P receptor [1] of 13 nM.

Take `Fc1ccc([C@@H]2NCCO[C@@]23CC[C@H](c2ccccc2C(F)(F)F)CO3)cc1`: the Affinity at Substance-P receptor [3] turned out to be 44%.

Consider `COc1ccc([C@H]2COCC3(C2)OCCN[C@H]3c2ccc(F)cc2)cc1` (stereo partly drawn), for which, at Substance-P receptor [4], the Affinity amounted to 27%.

In turn, `COc1ccc(-n2nnnc2C(F)(F)F)cc1[C@H]1COCC2(C1)OCCN(Cc1n[nH]c(O)n1)[C@H]2c1ccc(F)cc1` (stereo partly drawn) displayed a concentration for half-maximal inhibition (IC50) on Substance-P receptor [1] of 0.1 nM.

On to `COc1ccc(C(C)C)cc1[C@H]1COCC2(C1)OCCN[C@H]2c1ccc(F)cc1` (stereo partly drawn), for which, on Substance-P receptor [1], the concentration for half-maximal inhibition (IC50) came out at 2.8 nM.

Take `Fc1ccc([C@@H]2NCCO[C@@]23CC[C@@H](c2ccccc2C(F)(F)F)CO3)cc1`: the IC50 at Substance-P receptor [2] was 28 nM.

On Substance-P receptor [3], `Fc1ccc([C@@H]2NCCO[C@]23CC[C@@H](c2ccccc2C(F)(F)F)CO3)cc1` gave an Affinity of 47%.

As for `CN(C)Cc1nn[nH]c1CN1CCOC2(CCC(c3ccccc3C(F)(F)F)CO2)C1c1ccc(F)cc1` (stereo not drawn), the ED50 in the assay with Gerbillinae was 1.1 mg/kg. For the same compound, the IC50 on Substance-P receptor [1] turned out to be 1.1 nM.

In turn, `COc1cccc([C@H]2COCC3(C2)OCCN[C@H]3c2ccc(F)cc2)c1` (stereo partly drawn) registered an IC50 on Substance-P receptor [1] of 183 nM.

Consider `Fc1ccc(C2NCCOC23CCC(c2cccc(C(F)(F)F)c2)CO3)cc1` (stereo not drawn), for which the IC50 on Substance-P receptor [1] worked out at 513 nM.

`Fc1ccc(C2NCCOC23CCC(c2ccc(C(F)(F)F)cc2)CO3)cc1` (stereo not drawn): at Substance-P receptor [4], the Affinity amounted to 55%.

On Substance-P receptor [1], `Fc1ccc([C@@H]2NCCOC23COC[C@H](c2cccc(C(F)(F)F)c2)C3)cc1` (stereo partly drawn) registered an IC50 of 30 nM.
